Values joined by “and” are separate entries in the source; they are usually repeats but may differ in a detail not shown here. Equal entries are not always repeated. ± gives the expanded uncertainty stated by the source.
Settings: Liquid, Transpiration method

## O [water]
293.15 K
  vapor or sublimation pressure: 2.319 ± 0.094 kPa and 2.32 ± 0.094 kPa and 2.315 ± 0.094 kPa
298.15 K
  vapor or sublimation pressure: 3.178 ± 0.13 kPa

From the NIST ThermoML archive (doi:10.1021/acs.jced.6b00357)
